The values that follow come from patent EP4778933A1 (Chengdu Hyperway Pharmaceuticals Co., Ltd., priority 2023, dated 2025).

In series [1] the test system is human colon cancer GP2D mouse xenograft tumors. The experiment in a line: In vivo drug efficacy, GP2D subcutaneous xenograft tumor model. Also on record: species or system Balb/c nude mouse. The following applies: 30 mg/kg, PO; for inhibitory effects on human colon cancer GP2D mouse xenograft tumors: BID, 28 days; for Tumor volume inhibition rate (TGI): GP2D xenograft, BID × 28, day 28. The procedure:
A human colon cancer GP2D cell subcutaneous xenograft tumor Balb/c nude mouse model was established. GP2D tumor cells resuspended in DMEM medium were inoculated subcutaneously on the right side of the experimental animal at 1×10^7 + gel/0.1 mL. When the tumor grew to about 150-200 mm^3, administration in groups began, with 5 animals in each group. On the day of the experiment, the animals were given corresponding drugs according to the groups. The first group G1 was set as a solvent group, and 50 mM citrate buffer (pH 5.0) + 10% Captisol was given by gavage alone. The second group G2 was given a 50 mM citrate buffer (pH 5.0) + 10% Captisol of compound 26. The third group G3 was given a 50 mM citrate buffer (pH 5.0) + 10% Captisol of compound 31. Table 5: Study on effect of test substances on animal tumor size in human colon cancer GP2D mouse xenograft tumor model
During the experiment, the body weight and tumor size of the animals were measured twice a week, and the clinical symptoms of the animals were observed and recorded every day. Each drug administration was based on the most recent weighing of the animals.
The tumor was measured with a digital vernier caliper to measure the length (a) and width (b). The tumor volume (TV) was calculated using the following formula: TV = a × b^2 /2. [formula]

The test system of series [2] is RKN (KRAS G12V). Kind of series: 3D cell proliferation inhibition test (CellTiter-Glo 3D, 7 days), RKN. In kind it is cell-based. The following applies: 168 h, read-out: Inhibitory activity on cell proliferation (IC50) RKN (KRAS G12V). The procedure:
(§1) The diluted compounds to be tested were added to 384-well low-adhesion KRAS mutant types (such as GP2D, NCI H358, LoVo, RKN and KP2) of cell culture plates by using a nanoliter pipetting system (LABCYTE, P-0200). Then, the cells were plated and incubated in a 37°C, 5% CO2 incubator for 7 days. Afterward, CellTiter-Glo® 3D reagent was added, and the luminescent values were read by an Envision multifunctional microplate reader (the luminescent signal is proportional to the amount of ATP in the system, and the ATP content directly represents the number of viable cells in the system). Finally, the IC50 values (half-maximal inhibitory concentration) of the compounds were obtained by the XLFIT software using the nonlinear fitting formula.
(§2) • a) The diluted compounds to be tested were added to 384-well low-adhesion KRAS mutant types of cell culture plates by using a nanoliter pipetting system. • b) Cells were seeded into the 384-well plates in a) and then centrifuged at 1000 rpm for 1 min at room temperature, with a final DMSO concentration of compound being 0.5%. The plates were then incubated in a 5% CO2 constant-temperature incubator at 37°C for 7 days. • c) CellTiter-Glo® 3D was added to the 384-well cell culture plates in b), shaken in the dark, and incubated at room temperature. • d) The luminescence values were read by using an Envision multifunctional microplate reader.
(§3) The IC50 (half-maximal inhibitory concentration) values of the compounds were obtained by using XLFIT software according to the following nonlinear fitting formula: Y = Bottom + (Top−Bottom)/(1+10^(∧)((LogIC50−X)×HillSlope)) [formula] • X: log value of compound concentration. • Y: inhibition rate (%) [formula] • Negative control: DMSO. • Positive control: Medium only.

Series [3] concerns LoVo (KRAS G13D). Kind of series: 3D cell proliferation inhibition test (CellTiter-Glo 3D, 7 days), LoVo. In kind it is cell-based. The following applies: Homo sapiens, 168 h, read-out: Inhibitory activity on cell proliferation (IC50) LoVo (KRAS G13D). As for the experimental part:
as §1
as §2, with “reader. […]” for “reader.”

Series [4] in a line: In vivo pharmacokinetic test in rats. Also on record: species or system SD Rats. The following applies: male rats; for F: oral 30 mg/kg vs intravenous; for AUC / Cmax: rat, oral, single dose 30 mg/kg, plasma. The procedure:
Each test compound was administered orally once to male […] rats for pharmacokinetic study. The test compounds were prepared on the day of administration. The intravenous administration solvent: 5% DMSO + 10% solutol + 85% saline; and the oral administration solvent: 50 mM sodium citrate (pH 5.0) + 10% captisol. The oral administration was conducted in a dose of 30 mg/kg. The animals were fasted for 10-14 h before oral administration, and the feeding was resumed 4 h after administration. Pharmacokinetic samples were collected through the orbit. The collection time points were: 5 min (intravenous administration), 15 min, 30 min, 1 h, 2 h, 4 h, 6 h, 8 h and 24 h after administration. Three whole blood samples were collected at each time point, with a collection volume of about 0.2 mL, and anticoagulated with sodium heparin. After blood samples were collected, they were immediately placed on ice and centrifuged within 1 h to isolate plasma (centrifugation conditions: 8000 rpm, 1 min, 2-8°C). The collected plasma was stored in a -20°C refrigerator before analysis. The concentrations of compounds in the plasma samples were determined using an LC-MS/MS analysis method. Table 4: Pharmacokinetic test results of some compounds in SD Rats

The test system of series [5] is KRAS G12D-mediated ERK phosphorylation. The experiment in a line: Inhibition of KRAS G12D-mediated ERK phosphorylation in AGS cells (in-cell pERK/GAPDH immunofluorescence). The format is cell-based. The following applies: AGS cells, 3 h incubation, read-out: Inhibitory activity on ERK phosphorylation (IC50) AGS-G12D. The gist of the method:
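AGS, SW480, NCI H358 and KP2 cells were seeded overnight, then treated with compounds for 3 h at 37°C. After fixation, permeabilization and blocking, pERK and GAPDH were immunostained and read by two-colour infrared fluorescence. The pERK/GAPDH ratio was normalized to DMSO and 10 µM reference controls, and IC50 was fitted with a four-parameter logistic model.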

Series [6] has as its system KP2 (KRAS G12R). The experiment in a line: 3D cell proliferation inhibition test (CellTiter-Glo 3D, 7 days), KP2. The note with it: 168 h, read-out: Inhibitory activity on cell proliferation (IC50) KP2 (KRAS G12R). The format is cell-based. As for the experimental part:
as §1
as §2, with “reader. […]” for “reader.”

Series [7] concerns GP2D (KRASG12D). Kind of series: 3D cell proliferation inhibition test (CellTiter-Glo 3D, 7 days), GP2D. In kind it is cell-based. The note with it: 168 h, read-out: Inhibitory activity on cell proliferation (IC50) GP2D (KRASG12D). The procedure:
as §1, §2, §3

Where two headings read alike, the source gives them in different places.

Take `CC1(O)COCCN(c2nc(OCC34CCCN3C(c3cc(F)c(F)c(F)c3)CC4)nc3c(F)c(-c4cccc5sc(N)c(C#N)c45)c(Br)cc23)C1` (single isomer, unassigned) [Example 26, 2-amino-4-[6-bromo-8-fluoro-4-(6-hydroxy-6-methyl-1,4-oxazepan-4-yl)-2-({[3-(3,4,5-trifluoropheny 1)-2,3,5,6,7,7a-hexahydro-1H-pyrrolizin-7a-yl]methyl}oxy)quinazolin-7-yl]benzo[b]thiophene-3-carb onitrile]: the “inhibitory effects on human colon cancer GP2D mouse xenograft tumors” value in series [1] is on record as “significant inhibitory effects”. For the same compound, the “Tumor volume inhibition rate (TGI)” value in series [1] stood at 72.7%. The IC50 amounted to 4.32 nM in series [2]; 14.2 nM in series [3]; 2.7 nM in series [5] (Homo sapiens, AGS, 3 h); 56.6 nM in series [6]; 2.99 nM in series [7]. Besides, in series [4], the F is given as 22.3%. This compound returned an exposure (AUC) in series [4] (in vivo) of 12400 ng·h/mL. Further, the Cmax in series [4] (in vivo) is 1190 ng/mL.
Take `CC1(O)COCCN(c2nc(OCC34CCCN3C(c3cc(F)c(F)c(F)c3)CC4)nc3c(F)c(-c4cccc5sc(N)c(C#N)c45)c(I)cc23)C1` (single isomer, unassigned) [Example 31, 2-amino-4-[6-iodo-8-fluoro-4-(6-hydroxy-6-methyl-1,4-oxazepan-4-yl)-2-({[3-(3,4,5-trifluorophenyl)-2,3,5,6,7,7a-hexahydro-1H-pyrrolizin-7a-yl]methyl}oxy)quinazolin-7-yl]benzo[b]thiophene-3-carbonitrile]: the “inhibitory effects on human colon cancer GP2D mouse xenograft tumors” value in series [1] is listed as “significant inhibitory effects”. Moreover, the “Tumor volume inhibition rate (TGI)” value in series [1] is on record as 86.7%. The IC50 in series [2] is 3.69 nM; in series [3], 20.6 nM; in series [5], 1.9 nM; in series [6], 59.1 nM; in series [7], 1.75 nM. Besides, the AUC in series [4] (Sprague-Dawley (SD)) came to 11300 ng·h/mL. The Cmax in series [4] (Sprague-Dawley (SD)) was 1030 ng/mL. The same compound gave a F in series [4] of 21.5%.
